Measurements taken from US20200009173A1, “TRIAZOLE-CONTAINING MACROLIDES AND OPHTHALMIC USES THEREFOR” (Tetard, Inc., priority 2017, published 2020).
In brackets after ≈: the same amount, converted by molar mass. Read-outs that look alike come from different tables or passages of the source.

Legend:
[1] = Corneal permeability, Franz-Cell Diffusion Apparatus; type: in vitro ADME; settings: bovine (calf), pH 7
Experimental: EXAMPLE. Corneal Permeability. Corneal permeability is determined using conventional protocols. Briefly, corneal permeability is determined on freshly excised bovine (calf) cornea using a Franz-Cell Diffusion Apparatus generally with n=3/group. Freshly excised calf cornea are stored until use in hydrating solution containing glutathione and buffer. The Apparatus includes a donor chamber on the top where a predetermined volume of the formulation is pipetted and a jacketed receptor cell with a sampling side arm. The joint between the donor and receptor cell is upward-convex, mimicking the shape of the cornea. The corneal membrane is placed on the ball joint with the cornea facing the donor chamber. The Apparatus is clamped to secure the cells with the donor and receptor chambers aligned. […] The volume is recorded. […] Test samples are added in rapid succession by depositing 200 μL of the formulation into each donor chamber using a calibrated pipet and the times recorded. […] Flux can be calculated by the formula: J=Q/(A·t), where Q is the quantity (micrograms) of compound traversing the membrane in time t (minutes), and A is the area of exposed membrane in cm^2. […] After completion of the diffusion, corneas are weighed to determine the quantity of bound test compound in the cornea, and the corneal thicknesses of each cornea is measured at the point of diffusion (the center) using Vernier calipers. […]

[2] = MIC in the presence of serum; type: cell-based; settings: 10% serum
Chlamydophila pneumoniae = assay: MIC, Chlamydophila pneumoniae (10 strains); type: cell-based
Haemophilus influenzae = assay: MIC, Haemophilus influenzae (100 strains); type: cell-based
CA-MRSA = assay: MIC, CA-MRSA; type: cell-based, Staphylococcus aureus; settings: N = 30

## CC[C@H]1OC(=O)[C@@](C)(F)C(=O)[C@H](C)[C@@H](O[C@@H]2O[C@H](C)C[C@H](N(C)C)[C@H]2O)[C@](C)(OC)C[C@@H](C)C(=O)[C@H](C)[C@H]2N(CCCCn3cc(-c4cccc(N)c4)nn3)C(=O)O[C@]12C [CEM-101, solithromycin]
[1]; 1 h
  concentration in receptor fluid (therapeutically effective): ≥ 1000 ng/mL
[1]
  time after administration at which drug was observed in receptor fluid: ≤ 1 h
[2]
  change in MIC in the presence of serum: 2 fold
Chlamydophila pneumoniae; Chlamydia pneumoniae, 10 strains, read-out: MIC90
  MIC90: 0.25 µg/mL (≈ 0.296 µM)
Chlamydophila pneumoniae; Chlamydia pneumoniae, N = 10
  MIC50: 0.25 µg/mL (≈ 0.296 µM)
Chlamydophila pneumoniae; N = 10
  MIC90: 0.25 µg/mL (≈ 0.296 µM)
  MIC Range: 0.25 to 1 µg/mL
Haemophilus influenzae; Haemophilus influenzae, 100 strains, read-out: MIC90
  MIC90: 2 µg/mL (≈ 2.37 µM)
Haemophilus influenzae; Haemophilus influenzae, N = 100
  MIC50: 1 µg/mL (≈ 1.18 µM)
Haemophilus influenzae; N = 100
  MIC90: 2 µg/mL (≈ 2.37 µM)
  MIC Range: 0.12 to 4 µg/mL
CA-MRSA
  MIC Range: 0.06 to 0.12 µg/mL
CA-MRSA; Staphylococcus aureus, MRSA
  MIC50: 0.12 µg/mL (≈ 0.142 µM)
  MIC90: 0.12 µg/mL (≈ 0.142 µM)
